The values below come from patent US20120128821A1, “PROBIOTIC MICROORGANISMS ISOLATED FROM DONKEY MILK” (EUROLACTIS GROUP SA, priority 2009, published 2012).

The assay can be described thus: Production of organic acids after fermentation in donkey milk (HPLC). The note with it: absolute area, produced during fermentation, grown in donkey milk. The protocol: The production of organic acids after fermentation was determined by high-performance liquid chromatography of filtered supernatants (Vulevic, Rastall & Gibson, 2004; Nazzaro et al. 2009), using a Gold System apparatus equipped with an ultraviolet detector (Beckman, CA, USA). Samples were loaded onto a pre-packed Aminex HPX-87 column (300 7.8 mm, Bio-Rad, Hercules, Calif., USA) and eluted with […] sulphuric acid. Total running time was 40 min; flow rate was 0.6 ml/min; injection volume was 20 μl; and detection wavelength was 210 nm.
In the following tables are reported the amount of butyric acid and citric acid produced during fermentation by strains of the invention and some strains of reference, grown in donkey milk. The data are expressed in terms of absolute area (mm^2): […]

On to Lactobacillus acidophilus, for which the “Amount of butyric acid” value worked out at 26.21 mm^2 and the “Amount of citric acid” value was found to be 51.37 mm^2.
